Measurements: patent US20230263822A1, “MODULATION OF FACTOR 11 EXPRESSION” (Ionis Pharmaceuticals, Inc., priority 2008, published 2023)
Strand notation (5' to 3'): a small letter for the sugar, then the base; units joined by * are phosphorothioate-linked, units joined directly phosphodiester-linked; [ ] holds rarer units or linkages, { } end groups; capitals alone tell only the bases. e = 2'-O-(2-methoxyethyl) (MOE); [5mC] = 5-methylcytosine; d = 2'-deoxy (DNA)

Tests used:
human Factor 11 mRNA = assay: Dose-dependent inhibition of human Factor 11 in HepG2 cells, electroporation 625-20,000 nM (Example 5); assay type: cell-based; conditions: ~16 hours
Method: The gapmers were also transfected via electroporation and their dose dependent inhibition of human Factor 11 mRNA was measured. Cells were plated at a density of 20,000 cells per well and transfected via electroporation with 625 nM, 1250 nM, 2500 nM, 5,000 nM, 10,000 nM, and 20,000 nM concentrations of antisense oligonucleotide, as specified in Table 12. After a treatment period of approximately 16 hours, RNA was isolated from the cells and human Factor 11 mRNA levels were measured by quantitative real-time PCR. Human Factor 11 primer probe set RTS 2966 was used to measure mRNA levels. Factor 11 mRNA levels were adjusted according to total RNA content, as measured by RIBOGREEN. Results are presented as percent inhibition of human Factor 11, relative to untreated control cells.

[1] = set-up: species or system CD1 mice; conditions: mouse, in vivo
Method: Five mice from each group were sacrificed 3 days, 28 days and 56 days following the final dose. Livers were harvested for analysis.
The concentration of the full-length oligonucleotide as well as the total oligonucleotide concentration (including the degraded form) was measured. The method used is a modification of previously published methods (Leeds et al., 1996; Geary et al., 1999) which consist of a phenol-chloroform (liquid-liquid) extraction followed by a solid phase extraction. An internal standard (ISIS 355868, a 27-mer 2′-O-methoxyethyl modified phosphorothioate oligonucleotide, […], designated herein as SEQ ID NO: 270) was added prior to extraction. […] Half-lives were then calculated using WinNonlin software ([…]).
The results are presented in Tables 68 and 69, expressed as μg/g liver tissue.

[2] = Tolerability in CD1 mice: organ weight (Example 33); assay type: in vivo; conditions: 50 mg/kg s.c. twice a week, vs PBS control, normalized to body weight
Method: Three days after the last dose was administered to all groups, the mice were sacrificed.

[3] = Kidney function, BUN, urine protein to creatinine ratio in cynomolgus monkeys (Example 46); assay type: in vivo; conditions: for Urine protein/creatinine ratio: day 49
Method: (§1) Groups, each consisting of two male and two female monkeys, were injected subcutaneously with 25 mg/kg of ISIS 416850, ISIS 449709, ISIS 445522, ISIS 449710, ISIS 449707, ISIS 449711, ISIS 449708, 416858, and ISIS 445531. Antisense oligonucleotide was administered to the monkeys at 25 mg/kg three times per week for week 1 and 25 mg/kg twice per week for weeks 2 to 8. A control group, consisting of two male and two female monkeys was injected subcutaneously with PBS according to the same dosing regimen. Body weights were taken 14 days and 7 days before the start of treatment and were then measured weekly throughout the treatment period. Blood samples were collected 14 days and 5 days before the start of treatment and subsequently several times during the dosing regimen for PT and aPTT measurements, and measurement of various hematologic factors. On day 55, the monkeys were euthanized by exsanguination while under deep anesthesia, and organs harvested for further analysis.
To evaluate the impact of ISIS oligonucleotides on kidney function, urine samples were collected on different days. […] The ratio of urine protein to creatinine in urine samples after antisense oligonucleotide treatment was also calculated for day 49 and results are presented in Table 156. As observed in Tables 155 and 156, there were no significant increases in any of the kidney metabolic markers after antisense oligonucleotide treatment.

[4] = Body and organ weights of cynomolgus monkeys (Example 46); assay type: in vivo; set-up: Liver weight / Spleen weight / Kidney weight: unit not given here
Method: as §1
Organ weights were taken after the animals were euthanized on day 55, and livers, kidneys and spleens were harvested.

[5] = tested on: IL-1β, IL-6, IFN-γ, TNF-α, IL-8, MIP-1α, MCP-1, MIP-1β, RANTES; assay: Cytokine and chemokine assays in cynomolgus monkeys (Example 46); assay type: in vivo
Method: as §1
Blood samples obtained from all monkey groups were sent to Pierce Biotechnology (Woburn, Mass.) for measurements of chemokine and cytokine levels. Levels of IL-1β, IL-6, IFN-γ, and TNF-α were measured using the respective primate antibodies and levels of IL-8, MIP-1α, MCP-1, MIP-1β and RANTES were measured using the respective cross-reacting human antibodies. Measurements were taken 14 days before the start of treatment and on day 55, when the monkeys were euthanized.

[6] = Day −5 (before start of treatment)
[7] = Day −14 (before start of treatment)
[8] = day-14 (before start of treatment)

Substance: 416825 (antisense GCCCTTCATGTCTAGGTCCA; 5-10-5 gapmer, further chemistry not given here) [compound 416825]
- percent inhibition of human Factor 11 mRNA relative to untreated control cells (human Factor 11 mRNA; 625 nM): 69%
- percent inhibition of human Factor 11 mRNA relative to untreated control cells (human Factor 11 mRNA; 1250 nM): 84%
- percent inhibition of human Factor 11 mRNA relative to untreated control cells (human Factor 11 mRNA; 2500 nM): 91%
- percent inhibition of human Factor 11 mRNA relative to untreated control cells (human Factor 11 mRNA; 5000 nM): 94%
- percent inhibition of human Factor 11 mRNA relative to untreated control cells (human Factor 11 mRNA; 10000 nM): 96%
- percent inhibition of human Factor 11 mRNA relative to untreated control cells (human Factor 11 mRNA; 20000 nM): 97%
- Half-Life in the liver [1]: 16 days
- Percent change in kidney weight ([2]; 2 weeks): −12%
- Percent change in liver weight ([2]; 2 weeks): +5%
- Percent change in spleen weight ([2]; 2 weeks): −12%
- Percent change in kidney weight ([2]; 4 weeks): −12%
- Percent change in liver weight ([2]; 4 weeks): +22%
- Percent change in spleen weight ([2]; 4 weeks): +19%
- Percent change in kidney weight ([2]; 6 weeks): −11%
- Percent change in liver weight ([2]; 6 weeks): +13%
- Percent change in spleen weight ([2]; 6 weeks): +21%

Substance: 416826 (antisense ATGCCCTTCATGTCTAGGTC; 5-10-5 gapmer, further chemistry not given here) [compound 416826]
- percent inhibition of human Factor 11 mRNA relative to untreated control cells (human Factor 11 mRNA; 625 nM): 67%
- percent inhibition of human Factor 11 mRNA relative to untreated control cells (human Factor 11 mRNA; 1250 nM): 82%
- percent inhibition of human Factor 11 mRNA relative to untreated control cells (human Factor 11 mRNA; 2500 nM): 89%
- percent inhibition of human Factor 11 mRNA relative to untreated control cells (human Factor 11 mRNA; 5000 nM): 92%
- percent inhibition of human Factor 11 mRNA relative to untreated control cells (human Factor 11 mRNA; 10000 nM): 95%
- percent inhibition of human Factor 11 mRNA relative to untreated control cells (human Factor 11 mRNA; 20000 nM): 97%
- Half-Life in the liver [1]: 13 days
- Percent change in kidney weight ([2]; 2 weeks): −13%
- Percent change in liver weight ([2]; 2 weeks): +10%
- Percent change in spleen weight ([2]; 2 weeks): −12%
- Percent change in kidney weight ([2]; 4 weeks): −7%
- Percent change in liver weight ([2]; 4 weeks): +32%
- Percent change in spleen weight ([2]; 4 weeks): −5%
- Percent change in kidney weight ([2]; 6 weeks): −22%
- Percent change in liver weight ([2]; 6 weeks): +33%
- Percent change in spleen weight ([2]; 6 weeks): +22%

Substance: ISIS 449709: 3-8-3, 4-8-4, 2-10-2, 3-10-3 or 4-10-4 MOE microwalk gapmer (Table 46) (antisense eG*e[5mC]*eA*e[5mC]*dA*dG*dT*dT*dT*d[5mC]*dT*dG*dG*d[5mC]*eA*eG*eG*e[5mC])
- BUN levels ([3]; Day 31): 20 mg/dL
- BUN levels ([3]; Day 55): 28 mg/dL
- BUN levels [3, 6]: 21 mg/dL
- BUN levels [3, 7]: 22 mg/dL
- Urine protein/creatinine ratio [3]: 0.05
- body weight ([4]; day 1): 2112 g
- body weight ([4]; day 8): 2075 g
- body weight ([4]; day 15): 2085 g
- body weight ([4]; day 22): 2117 g
- body weight ([4]; day 29): 2068 g
- body weight ([4]; day 36): 2064 g
- body weight ([4]; day 43): 2106 g
- body weight ([4]; day 50): 2147 g
- Kidney weight ([4]; day 55, after euthanasia): 0.57
- Liver weight ([4]; day 55, after euthanasia): 2.6
- Spleen weight ([4]; day 55, after euthanasia): 0.21
- body weight ([4]; day −7): 2093 g
- body weight ([4]; day −14): 2044 g
- IFN-γ level ([5]; day 55): 25 pg/mL
- IL-1ß level ([5]; day 55): 181 pg/mL
- IL-6 level ([5]; day 55): 0 pg/mL
- IL-8 level ([5]; day 55): 254 pg/mL
- MCP-1 level ([5]; day 55): 507 pg/mL
- MIP-1ß level ([5]; day 55): 47 pg/mL
- MIP-1α level ([5]; day 55): 17 pg/mL
- RANTES level ([5]; day 55): 8958 pg/mL
- TNF-α level ([5]; day 55): 8 pg/mL
- IFN-γ level [5, 8]: 37 pg/mL
- IL-1ß level [5, 8]: 137 pg/mL
- IL-6 level [5, 8]: 1 pg/mL
- IL-8 level [5, 8]: 34 pg/mL
- MCP-1 level [5, 8]: 290 pg/mL
- MIP-1ß level [5, 8]: 14 pg/mL
- MIP-1α level [5, 8]: 13 pg/mL
- RANTES level [5, 8]: 2471 pg/mL
- TNF-α level [5, 8]: 9 pg/mL

Substance: ISIS 449710: 3-8-3, 4-8-4, 2-10-2, 3-10-3 or 4-10-4 MOE microwalk gapmer (Table 46) (antisense e[5mC]*eA*e[5mC]*dA*dG*dT*dT*dT*d[5mC]*dT*dG*dG*d[5mC]*eA*eG*eG)
- BUN levels ([3]; Day 31): 19 mg/dL
- BUN levels ([3]; Day 55): 23 mg/dL
- BUN levels [3, 6]: 19 mg/dL
- BUN levels [3, 7]: 19 mg/dL
- Urine protein/creatinine ratio [3]: 0.00
- body weight ([4]; day 1): 2131 g
- body weight ([4]; day 8): 2120 g
- body weight ([4]; day 15): 2145 g
- body weight ([4]; day 22): 2177 g
- body weight ([4]; day 29): 2149 g
- body weight ([4]; day 36): 2180 g
- body weight ([4]; day 43): 2227 g
- body weight ([4]; day 50): 2201 g
- Kidney weight ([4]; day 55, after euthanasia): 0.58
- Liver weight ([4]; day 55, after euthanasia): 2.6
- Spleen weight ([4]; day 55, after euthanasia): 0.24
- body weight ([4]; day −7): 2114 g
- body weight ([4]; day −14): 2097 g
- IFN-γ level ([5]; day 55): 176 pg/mL
- IL-1ß level ([5]; day 55): 286 pg/mL
- IL-6 level ([5]; day 55): 2 pg/mL
- IL-8 level ([5]; day 55): 348 pg/mL
- MCP-1 level ([5]; day 55): 474 pg/mL
- MIP-1ß level ([5]; day 55): 53 pg/mL
- MIP-1α level ([5]; day 55): 27 pg/mL
- RANTES level ([5]; day 55): 22656 pg/mL
- TNF-α level ([5]; day 55): 26 pg/mL
- IFN-γ level [5, 8]: 1115 pg/mL
- IL-1ß level [5, 8]: 271 pg/mL
- IL-6 level [5, 8]: 7 pg/mL
- IL-8 level [5, 8]: 29 pg/mL
- MCP-1 level [5, 8]: 409 pg/mL
- MIP-1ß level [5, 8]: 18 pg/mL
- MIP-1α level [5, 8]: 20 pg/mL
- RANTES level [5, 8]: 1215 pg/mL
- TNF-α level [5, 8]: 72 pg/mL

Substance: ISIS 449711: 3-8-3, 4-8-4, 2-10-2, 3-10-3 or 4-10-4 MOE microwalk gapmer (Table 46) (antisense eA*e[5mC]*dA*dG*dT*dT*dT*d[5mC]*dT*dG*dG*d[5mC]*eA*eG)
- BUN levels ([3]; Day 31): 20 mg/dL
- BUN levels ([3]; Day 55): 23 mg/dL
- BUN levels [3, 6]: 22 mg/dL
- BUN levels [3, 7]: 26 mg/dL
- Urine protein/creatinine ratio [3]: 0.01
- Spleen weight ([4]; cynomolgus monkeys, 25 mg/kg, day 55, compared to the PBS control): caused increase in spleen weight
- body weight ([4]; day 1): 2123 g
- body weight ([4]; day 8): 2123 g
- body weight ([4]; day 15): 2103 g
- body weight ([4]; day 22): 2171 g
- body weight ([4]; day 29): 2203 g
- body weight ([4]; day 36): 2227 g
- body weight ([4]; day 43): 2251 g
- body weight ([4]; day 50): 2227 g
- Kidney weight ([4]; day 55, after euthanasia): 0.54
- Liver weight ([4]; day 55, after euthanasia): 2.6
- Spleen weight ([4]; day 55, after euthanasia): 0.32
- body weight ([4]; day −7): 2105 g
- body weight ([4]; day −14): 2049 g
- IFN-γ level ([5]; day 55): 22 pg/mL
- IL-1ß level ([5]; day 55): 146 pg/mL
- IL-6 level ([5]; day 55): 7 pg/mL
- IL-8 level ([5]; day 55): 110 pg/mL
- MCP-1 level ([5]; day 55): 469 pg/mL
- MIP-1ß level ([5]; day 55): 91 pg/mL
- MIP-1α level ([5]; day 55): 17 pg/mL
- RANTES level ([5]; day 55): 3029 pg/mL
- TNF-α level ([5]; day 55): 31 pg/mL
- IFN-γ level [5, 8]: 29 pg/mL
- IL-1ß level [5, 8]: 79 pg/mL
- IL-6 level [5, 8]: 2 pg/mL
- IL-8 level [5, 8]: 156 pg/mL
- MCP-1 level [5, 8]: 264 pg/mL
- MIP-1ß level [5, 8]: 24 pg/mL
- MIP-1α level [5, 8]: 20 pg/mL
- RANTES level [5, 8]: 3687 pg/mL
- TNF-α level [5, 8]: 6 pg/mL
